{"source": "patent US4067997A", "about": "“Synergistic microbecidal composition and method” (priority 1976, dated 1978)", "key": {"Nocardia asteroides": {"tested_on": "Nocardia asteroides", "assay": "MIC, broth dilution (Examples I/II)", "assay_type": "cell-based, Nocardia asteroids (3308)", "conditions": "Nocardia asteroides; read-out: Inhibitory concentration", "outline": "(§1)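 Fatty acids and esters, dispersed from ethanol or methanol into Trypticase Soy Broth with warming and sonication, were twofold diluted from 1,000 to 125 μg/ml. Tubes were inoculated with 18-h or 13-24 h broth cultures (10^7–10^9 organisms/ml) and incubated at 35–36°C. MIC, the lowest concentration without visible turbidity versus controls, is expressed in μmole/ml.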"}, "Streptococcus Group D": {"tested_on": "Streptococcus Group D", "assay": "MIC, broth dilution (Examples I/II)", "assay_type": "cell-based", "conditions": "Group D Strep", "procedure": "(§2) In order to establish comparative bactericidal and fungicidal results with homologous fatty acids, a series of experiments was performed with thirty straight-chain fatty acids and derivatives thereof. Eight different gram-negative and twelve different gram-positive organisms, representing a very broad spectrum of organisms, were used in these experiments including the fungus Candida (a yeast). Additionally, fatty acids were chosen to show the effects of saturation versus unsaturation, in the fatty acid claim. Standard solutions of the fatty acids and their derivatives were prepared by first dissolving the weighed compounds in 1 to 2 ml of 95% ethanol and immediately pouring this solution into 200 ml of Tripticase Soy Broth. These lipid compounds which are insoluble in water and broth precipitated into very small crystals or droplets. The tubes containing the suspension were warmed to approximately 70° C and were then placed in an ultrasonic tank for further solubilization of the lipid derivatives.\n(§3) Standard solutions (or suspensions) at 1,000 μg/ml were twofold serially diluted with additional broth to a concentration of 125 μg/ml. A 4-ml amount of each dilution was then quickly, and with constant agitation, dispensed into appropriately labeled screw-capped glass tubes (16 by 125 mm). The tubes were sterilized with steam at 15 psi for 15 minutes. After sterilization, all tubes were cooled and incubated overnight at 35° C to insure sterility.\n(§4) All compounds were compared on a molar (micromoles/milliliter) rather than on a mass basis. In the following lists of organisms used, those followed by a parenthetical number are registered with the American Type Culture Collection (ATCC); the remainder were isolates from Providence Hospital or Northland Laboratory.\nOne drop (0.04 ± 0.01 ml) of an 18-hr broth culture containing 10^7 and 10^9 organisms/ml was added to each dilution of the test compound, as well as to a tube of plain broth which served as the positive control. After inoculation, the contents of each tube were well mixed, and the tubes were incubated at 35° C in a 5% carbon dioxide + […] atmosphere.\nThe MIC is defined as the lowest concentration of compound at which no […] evidence of growth was observed when turbidity of the inoculated broth dilutions was compared with control tubes. […] Only a one-tube difference between the bactericidal and bacteriostatic concentrations was normally observed.\n(§5) Standard solutions (1000 μg/ml) of three fatty acids and polyglycerol esters thereof were prepared as described in Example I. Also sucrose esters were prepared by transferring the weighed compounds (0.2 gm. dissolved in 1 ml absolute methanol) into 200 ml of sterile Trypticase Soy Broth (TSB). These standard solutions (1000 μg/ml) were twofold serially diluted with additional sterile broth to a concentration of 125 μg/ml. A 3.8 aliquot of each dilution was asceptically delivered into sterile screw-capped culture tubes. All tubes were incubated overnight at 36° C to insure sterility. The microorganisms used in this example were the same as those used in Example I.\n(§6) The inoculum, 0.05 ml of an 13-24 hour TSB culture (approximately 10^9 organisms/ml) was asceptically delivered into all dilutions of the compounds, mixed well, and incubated at 36° C. A tube of inoculated broth without the compound served as a positive control and an uninoculated set of dilutions incubated along with the test dilutions, served as a negative control.\nIn those cases in which the test compound itself caused turbidity, an aliquot (0.015 ml) of the mixed broth was inoculated onto an agar plate and incubated at 36° C for examination, as described in Example I. The control procedure of Example I was also repeated. The lauric, capric, and oleic acids were used as internal controls and for comparison to Example I. The minimal inhibitory concentrations (μmole/ml) for the compounds studied are given in Tables 7 and 8."}, "Streptococcus Group A": {"tested_on": "Streptococcus Group A", "assay": "MIC, broth dilution (Examples I/II)", "assay_type": "cell-based, beta-hemolytic streptococci Group A", "conditions": "Group A Strep; read-out: Inhibitory concentration", "outline": "as §1"}, "E. coli": {"tested_on": "E. coli", "assay": "MIC, broth dilution (Example II)", "assay_type": "cell-based, Escherichia coli", "procedure": "Proteus vulgaris, P. mirabilis (14273), P. rettgeri (9250), Escherichia coli, Serratia marcescens (13880), Enterobacter-Klebsiella, Pseudomonas aeruginosa (10145), and Salmonella typhimurium.\nas §5\nas §6, with “control. […]” for “control.”"}, "S. aureus": {"tested_on": "S. aureus", "assay": "MIC, broth dilution (Examples I/II)", "assay_type": "cell-based, Staphylococcus aureus", "conditions": "Staphylococcus aureus; S. aureus; read-out: Inhibitory concentration", "procedure": "as §2, §3, §4\nOne drop (0.04 ± 0.01 ml) of an 18-hr broth culture containing 10^7 and 10^9 organisms/ml was added to each dilution of the test compound, as well as to a tube of plain broth which served as the positive control. […]"}, "Saccharomyces cerevisiae": {"tested_on": "Saccharomyces cerevisiae", "assay": "MIC, broth dilution (Example II)", "assay_type": "cell-based", "conditions": "18 h, read-out: Inhibitory concentration", "procedure": "as §5, §6\nIn those cases in which the test compound itself caused turbidity, an aliquot (0.015 ml) of the mixed broth was inoculated onto an agar plate and incubated at 36° C for examination, as described in Example I. The control procedure of Example I was also repeated. […]"}}, "data": [{"smiles": "CCCCCCCCCCC(O)C(=O)OC", "note": "(stereo not drawn) [Methyl, α-hydroxylaurate]", "values": [{"measurement": "MIC", "setting": "Nocardia asteroides", "result": 4340, "unit": "µM"}, {"measurement": "Inhibition in words", "setting": "Streptococcus Group D", "result": "Neither compound was inhibitory"}, {"measurement": "MIC", "setting": "Streptococcus Group A", "result": 540, "unit": "µM"}, {"measurement": "Inhibition in words", "setting": "E. coli", "result": "Neither compound was inhibitory"}, {"measurement": "MIC", "setting": "S. aureus", "result": 540, "unit": "µM"}, {"measurement": "MIC", "setting": "Saccharomyces cerevisiae", "result": 540, "unit": "µM"}]}]}
